Assay results as given in US12195410B2, “Nitrapyrin compositions for enhancing nitrogen nutrient use efficiency and improving plant growth” (Verdesian Life Sciences U.S., LLC, priority 2018, dated 2025).

Assays:
[1] = Nitrapyrin volatilization, weight loss on heated balance at 100° C.; format: physicochemical; conditions: for weight as a percent of original weight: heated balance 100° C.
Description: Three materials were placed on a heated balance at 100° C. and had their weights observed every minute for 10 minutes, as a percent of original weight. The materials were: • 1. pure nitrapyrin, • 2. 25% w/w solution of nitrapyrin in sulfolane, and • 3. solution of 25% nitrapyrin salt with equimolar (on acid basis) amount of maleic-itaconic copolymer, also in sulfolane (nitrapyrin/polyanionic polymer salt).
Therefore, the disclosed nitrapyrin salts substantially reduce the volatilization of nitrapyrin.

[2] = Formation of solutions of nitrapyrin salts at 20% w/w nitrapyrin and grading of solutions; format: physicochemical; parameters: key: 5: Fully dissolved; 4: Mostly dissolved; 3: Mostly not dissolved; 2: Not dissolved; 1: Additional precipitate
Description: Example 2. Formation of Solutions of Nitrapyrin Salts and Grading of Solutions

[3] = solvent Rhodiasolv Polarclean (L)
[4] = solvent propylene carbonate (F)
[5] = solvent tripropylene glycol (E)

SMILES | grading of solution ([2]; solvent Agnique AMD3L (I)) | grading of solution ([2]; solvent Agnique AMD810 (H)) | grading of solution ([2]; solvent PT250 (C)) | grading of solution ([2]; solvent PT700 (B)) | grading of solution ([2]; solvent Rhodiasolv ADMA10 (J)) | grading of solution ([2]; solvent Rhodiasolv ADMA810 (K)) | grading of solution [2, 3] | grading of solution ([2]; solvent dipropylene glycol (A)) | grading of solution [2, 4] | grading of solution ([2]; solvent triacetin (G)) | grading of solution ([2]; solvent triethylene glycol (D)) | grading of solution [2, 5] | also measured
Clc1cccc(C(Cl)(Cl)Cl)n1 [nitrapyrin without solvent, Nitrapyrin] |  |  |  |  |  |  |  |  |  |  |  |  | weight as a percent of original weight ([1]; experiment time 0 min): 100.00%; weight as a percent of original weight ([1]; experiment time 1 min): 99.20%; weight as a percent of original weight ([1]; experiment time 2 min): 98.56%; weight as a percent of original weight ([1]; experiment time 3 min): 97.92%; weight as a percent of original weight ([1]; experiment time 4 min): 96.00%; weight as a percent of original weight ([1]; experiment time 5 min): 94.87%; weight as a percent of original weight ([1]; experiment time 6 min): 93.75%; weight as a percent of original weight ([1]; experiment time 7 min): 92.63%; weight as a percent of original weight ([1]; experiment time 8 min): 90.87%; weight as a percent of original weight ([1]; experiment time 9 min): 89.90%; weight as a percent of original weight ([1]; experiment time 10 min): 89.10%; nitrapyrin sulfolane volatility ratio, Delta 3-10 ([1]; nitrapyrin without solvent vs. solvent alone, 100° C., 3 to 10 min): 401%; nitrapyrin sulfolane volatility ratio, Delta 4-10 ([1]; nitrapyrin without solvent vs. solvent alone, 100° C., 4 to 10 min): 392%; nitrapyrin sulfolane volatility ratio, Delta 5-10 ([1]; nitrapyrin without solvent vs. solvent alone, 100° C., 5 to 10 min): 393%
Clc1cccc(C(Cl)(Cl)Cl)n1.Clc1cccc(C(Cl)(Cl)Cl)n1.O=C(O)c1cccc(C(=O)O)c1 [isophthalic] | 3 | 3 | 1 | 2 | 3 | 3 | 3 | 2 | 3 | 3 | 1 | 4 | 
CC(O)(P(=O)(O)O)P(=O)(O)O.Clc1cccc(C(Cl)(Cl)Cl)n1.Clc1cccc(C(Cl)(Cl)Cl)n1.Clc1cccc(C(Cl)(Cl)Cl)n1.Clc1cccc(C(Cl)(Cl)Cl)n1 [etidronic] | 5 | 4 | 1 | 4 | 5 | 4 | 5 | 1 | 2 | 2 | 1 | 1 | 
O=C(O)CCC(=O)O [succinic] | 5 | 5 | 1 | 4 | 5 | 5 | 5 | 3 | 3 | 2 | 2 | 3 | 
O=C(O)C(O)C(O)C(=O)O (centres unmarked) [tartaric] | 5 | 5 | 1 | 2 | 5 | 5 | 5 | 2 | 2 | 2 | 1 | 2 | 
Clc1cccc(C(Cl)(Cl)Cl)n1.Clc1cccc(C(Cl)(Cl)Cl)n1.O=C(O)CC(O)C(=O)O [malic] | 5 | 5 | 1 | 4 | 5 | 5 | 5 | 2 | 3 | 3 | 2 | 2 | 
